According to PubChem BioAssay (NCI):
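All cell lines were grown in 96-well plates and treated with compound for 48 hours. GI50 = concentration required for 50% inhibition of growth. TGI marks complete inhibition of growth.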

Key:
Experiment in all cases: inhibition of tumour cell growth, NCI panel, 48 h
HCC-2998 colon = system: HCC-2998 colon
NCI-H23 lung = system: NCI-H23 lung
A498 renal = system: A498 renal
COLO 205 colon = system: COLO 205 colon
NCI/ADR-RES ovarian = system: NCI/ADR-RES ovarian
OVCAR-4 ovarian = system: OVCAR-4 ovarian
DU-145 prostate = system: DU-145 prostate
EKVX NSCLC = system: EKVX NSCLC
SF-268 CNS = system: SF-268 CNS
SNB-19 CNS = system: SNB-19 CNS
CCRF-CEM leukemia = system: CCRF-CEM leukemia
SF-539 CNS = system: SF-539 CNS
CAKI-1 renal = system: CAKI-1 renal
SW-620 colon = system: SW-620 colon
UACC-257 melanoma = system: UACC-257 melanoma
SK-MEL-28 melanoma = system: SK-MEL-28 melanoma
MCF7 breast = system: MCF7 breast
HCT-15 colon = system: HCT-15 colon
MOLT-4 leukemia = system: MOLT-4 leukemia
SK-MEL-2 melanoma = system: SK-MEL-2 melanoma
ACHN renal = system: ACHN renal
RPMI-8226 leukemia = system: RPMI-8226 leukemia
PC-3 prostate = system: PC-3 prostate
RXF 393 renal = system: RXF 393 renal
HOP-62 NSCLC = system: HOP-62 NSCLC
786-0 renal = system: 786-0 renal
SK-OV-3 ovarian = system: SK-OV-3 ovarian
T-47D breast = system: T-47D breast
OVCAR-3 ovarian = system: OVCAR-3 ovarian
BT-549 breast = system: BT-549 breast
SK-MEL-5 melanoma = system: SK-MEL-5 melanoma
OVCAR-5 ovarian = system: OVCAR-5 ovarian
U251 CNS = system: U251 CNS
HT29 colon = system: HT29 colon
IGROV1 ovarian = system: IGROV1 ovarian
A549 NSCLC = system: A549 NSCLC
HOP-92 NSCLC = system: HOP-92 NSCLC
NCI-H226 lung = system: NCI-H226 lung
SN12C renal = system: SN12C renal
K-562 leukemia = system: K-562 leukemia
SNB-75 CNS = system: SNB-75 CNS
LOX IMVI melanoma = system: LOX IMVI melanoma
UO-31 renal = system: UO-31 renal
MDA-MB-231 breast = system: MDA-MB-231 breast
HCT-116 colon = system: HCT-116 colon
OVCAR-8 ovarian = system: OVCAR-8 ovarian
HS 578T breast = system: HS 578T breast
KM12 colon = system: KM12 colon
NCI-H460 lung = system: NCI-H460 lung
UACC-62 melanoma = system: UACC-62 melanoma
SF-295 CNS = system: SF-295 CNS
M14 melanoma = system: M14 melanoma
NCI-H522 lung = system: NCI-H522 lung
MDA-MB-435 = system: MDA-MB-435
SR leukemia = system: SR leukemia
TK-10 renal = system: TK-10 renal
HL-60(TB) leukemia = system: HL-60(TB) leukemia

`O=C1OCC2=C1C(c1cccc(F)c1)c1cc3c(cc1N2CCO)CCC3` (stereo not drawn) showed a GI50 (HCC-2998 colon) of 148 nM, a TGI (HCC-2998 colon) of 11000 nM and a GI50 (NCI-H23 lung) of 248 nM. For the same molecule, the TGI (NCI-H23 lung) was > 50000 nM, the GI50 (A498 renal) was 13.8 nM and the TGI (A498 renal) was 261 nM. For the same molecule, the GI50 (COLO 205 colon) was 152 nM, the GI50 (NCI/ADR-RES ovarian) was 43.5 nM and the TGI (NCI/ADR-RES ovarian) was > 50000 nM. For the same molecule, the GI50 (OVCAR-4 ovarian) was 1760 nM, the TGI (OVCAR-4 ovarian) was > 50000 nM and the GI50 (DU-145 prostate) was 162 nM. For the same molecule, the TGI (DU-145 prostate) was > 24400 nM, the GI50 (EKVX NSCLC) was 162 nM and the TGI (EKVX NSCLC) was > 50000 nM. The GI50 (SF-268 CNS) was 122 nM, the TGI (SF-268 CNS) was 25200 nM and the GI50 (SNB-19 CNS) was 113 nM. For the same molecule, the TGI (SNB-19 CNS) was > 50000 nM, the GI50 (CCRF-CEM leukemia) was 168 nM and the TGI (CCRF-CEM leukemia) was > 50000 nM. The GI50 (SF-539 CNS) was 49.1 nM, the TGI (SF-539 CNS) was 434 nM and the GI50 (CAKI-1 renal) was 38.1 nM. The TGI (CAKI-1 renal) was > 33300 nM, the GI50 (SW-620 colon) was 57.1 nM and the TGI (SW-620 colon) was > 50000 nM. For the same molecule, the GI50 (UACC-257 melanoma) was 12200 nM, the TGI (UACC-257 melanoma) was > 50000 nM and the GI50 (SK-MEL-28 melanoma) was 655 nM. The TGI (SK-MEL-28 melanoma) was > 50000 nM, the GI50 (MCF7 breast) was 22.9 nM and the TGI (MCF7 breast) was > 29000 nM. The GI50 (HCT-15 colon) was 46.4 nM, the TGI (HCT-15 colon) was > 20200 nM and the GI50 (MOLT-4 leukemia) was 237 nM. The TGI (MOLT-4 leukemia) was > 50000 nM, the GI50 (SK-MEL-2 melanoma) was 1070 nM and the TGI (SK-MEL-2 melanoma) was 39000 nM. The GI50 (ACHN renal) was 129 nM, the TGI (ACHN renal) was > 50000 nM and the GI50 (RPMI-8226 leukemia) was 167 nM. For the same molecule, the TGI (RPMI-8226 leukemia) was 29700 nM, the GI50 (PC-3 prostate) was 65.7 nM and the TGI (PC-3 prostate) was > 50000 nM. For the same molecule, the GI50 (RXF 393 renal) was 91.4 nM, the TGI (RXF 393 renal) was > 50000 nM and the GI50 (HOP-62 NSCLC) was 798 nM. The TGI (HOP-62 NSCLC) was > 50000 nM, the GI50 (786-0 renal) was 71.8 nM and the TGI (786-0 renal) was > 50000 nM. For the same molecule, the GI50 (SK-OV-3 ovarian) was 844 nM, the TGI (SK-OV-3 ovarian) was > 50000 nM and the GI50 (T-47D breast) was 2930 nM. The TGI (T-47D breast) was > 50000 nM, the GI50 (OVCAR-3 ovarian) was 29.3 nM and the TGI (OVCAR-3 ovarian) was 3920 nM. For the same molecule, the GI50 (BT-549 breast) was 161 nM, the TGI (BT-549 breast) was 6950 nM and the GI50 (SK-MEL-5 melanoma) was 62.6 nM. The TGI (SK-MEL-5 melanoma) was 2580 nM, the GI50 (OVCAR-5 ovarian) was 205 nM and the TGI (OVCAR-5 ovarian) was > 50000 nM. The GI50 (U251 CNS) was 90.4 nM, the TGI (U251 CNS) was > 34000 nM and the GI50 (HT29 colon) was 92.2 nM. The TGI (HT29 colon) was > 18900 nM, the GI50 (IGROV1 ovarian) was 81.7 nM and the TGI (IGROV1 ovarian) was > 50000 nM. The GI50 (A549 NSCLC) was 113 nM, the TGI (A549 NSCLC) was > 50000 nM and the GI50 (HOP-92 NSCLC) was 1620 nM. For the same molecule, the TGI (HOP-92 NSCLC) was 49600 nM, the GI50 (NCI-H226 lung) was 1020 nM and the TGI (NCI-H226 lung) was > 47600 nM. The GI50 (SN12C renal) was 233 nM, the TGI (SN12C renal) was > 50000 nM and the GI50 (K-562 leukemia) was 28 nM. The TGI (K-562 leukemia) was > 50000 nM, the GI50 (SNB-75 CNS) was 13.6 nM and the TGI (SNB-75 CNS) was 47400 nM. For the same molecule, the GI50 (LOX IMVI melanoma) was 95.8 nM, the TGI (LOX IMVI melanoma) was 10100 nM and the GI50 (UO-31 renal) was 107 nM. For the same molecule, the TGI (UO-31 renal) was > 42500 nM, the GI50 (MDA-MB-231 breast) was 218 nM and the TGI (MDA-MB-231 breast) was > 22200 nM. For the same molecule, the GI50 (HCT-116 colon) was 81.9 nM, the TGI (HCT-116 colon) was > 50000 nM and the GI50 (OVCAR-8 ovarian) was 139 nM. For the same molecule, the TGI (OVCAR-8 ovarian) was > 50000 nM, the GI50 (HS 578T breast) was 50.9 nM and the TGI (HS 578T breast) was > 30600 nM. For the same molecule, the GI50 (KM12 colon) was 55.9 nM, the TGI (KM12 colon) was > 50000 nM and the GI50 (NCI-H460 lung) was 60.9 nM. The TGI (NCI-H460 lung) was 6970 nM, the GI50 (UACC-62 melanoma) was 22.7 nM and the TGI (UACC-62 melanoma) was 33400 nM. It also gave a GI50 (SF-295 CNS) of 23.3 nM, a TGI (SF-295 CNS) of 10800 nM and a GI50 (M14 melanoma) of 49.1 nM. For the same molecule, the TGI (M14 melanoma) was > 20900 nM, the GI50 (NCI-H522 lung) was 16.9 nM and the TGI (NCI-H522 lung) was 704 nM. The GI50 (MDA-MB-435) was 16.6 nM, the TGI (MDA-MB-435) was 68.4 nM and the GI50 (SR leukemia) was 28.5 nM. For the same molecule, the TGI (SR leukemia) was 37400 nM, the GI50 (TK-10 renal) was 433 nM and the TGI (TK-10 renal) was > 50000 nM. For the same molecule, the GI50 (HL-60(TB) leukemia) was 77.3 nM and the TGI (HL-60(TB) leukemia) was 376 nM.
